Laboratory results: publication PMC9571063 (Molecules, 2022)

Key:
Experiment in all cases: KINOMEscan
[1] = target: T1, FLT3(D835H) (Homo sapiens, UniProt P36888, D835H); type: binding; settings: read-out: Percent Control
T1 construct: purchased Eurofins DiscoverX KINOMEscan (scanMAX 468)

[2] = target: T2, CDK4 (Homo sapiens, UniProt P11802); type: binding; settings: read-out: Percent Control
T2 construct: purchased Eurofins DiscoverX KINOMEscan (scanMAX 468)

[3] = target: T3, FYN (Homo sapiens, UniProt P06241); type: binding; settings: read-out: Percent Control
T3 construct: purchased Eurofins DiscoverX KINOMEscan (scanMAX 468)

[4] = target: T4, TYK2(JH2domain-pseudokinase) (Homo sapiens, UniProt P29597); type: binding; settings: read-out: Percent Control
T4 construct: TYK2(JH2domain-pseudokinase); purchased Eurofins DiscoverX KINOMEscan (scanMAX 468)
T4 sequence (P29597 556-888 limits assumed): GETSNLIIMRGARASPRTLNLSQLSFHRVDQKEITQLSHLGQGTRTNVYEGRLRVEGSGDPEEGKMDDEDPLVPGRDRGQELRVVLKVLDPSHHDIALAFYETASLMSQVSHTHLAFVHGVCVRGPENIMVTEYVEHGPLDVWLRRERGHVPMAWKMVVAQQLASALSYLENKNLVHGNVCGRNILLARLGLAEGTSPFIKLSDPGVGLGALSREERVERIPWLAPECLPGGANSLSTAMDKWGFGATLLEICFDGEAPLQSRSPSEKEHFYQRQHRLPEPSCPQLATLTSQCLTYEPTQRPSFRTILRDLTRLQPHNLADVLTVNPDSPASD

[5] = target: T5, ULK1 (Homo sapiens, UniProt O75385); type: binding; settings: read-out: Percent Control
T5 construct: purchased Eurofins DiscoverX KINOMEscan (scanMAX 468)

[6] = target: T6, PIP5K1C (Homo sapiens, UniProt O60331); type: binding; settings: read-out: Percent Control
T6 construct: purchased Eurofins DiscoverX KINOMEscan (scanMAX 468)

[7] = target: T7, LYN (Homo sapiens, UniProt P07948); type: binding; settings: read-out: Percent Control
T7 construct: purchased Eurofins DiscoverX KINOMEscan (scanMAX 468)

[8] = target: T8, HPK1 (Homo sapiens, UniProt Q92918); type: binding; settings: read-out: Percent Control
T8 construct: purchased Eurofins DiscoverX KINOMEscan (scanMAX 468)

[9] = target: T9, PRKCI (Homo sapiens, UniProt P41743); type: binding; settings: read-out: Percent Control
T9 construct: purchased Eurofins DiscoverX KINOMEscan (scanMAX 468)

[10] = target: T10, TSSK3 (Homo sapiens, UniProt Q96PN8); type: binding; settings: read-out: Percent Control
T10 construct: purchased Eurofins DiscoverX KINOMEscan (scanMAX 468)
T10 sequence (Q96PN8 whole entry): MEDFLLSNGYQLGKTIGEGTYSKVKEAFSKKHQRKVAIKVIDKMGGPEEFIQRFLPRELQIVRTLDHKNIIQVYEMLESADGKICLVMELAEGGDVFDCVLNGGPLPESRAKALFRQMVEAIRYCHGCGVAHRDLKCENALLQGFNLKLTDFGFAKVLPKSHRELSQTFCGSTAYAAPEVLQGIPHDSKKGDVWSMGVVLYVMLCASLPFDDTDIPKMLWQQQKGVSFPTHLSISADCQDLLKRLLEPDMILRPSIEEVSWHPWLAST

[11] = target: T11, PIK3C2B (Homo sapiens, UniProt O00750); type: binding; settings: read-out: Percent Control
T11 construct: purchased Eurofins DiscoverX KINOMEscan (scanMAX 468)
T11 sequence (O00750 whole entry): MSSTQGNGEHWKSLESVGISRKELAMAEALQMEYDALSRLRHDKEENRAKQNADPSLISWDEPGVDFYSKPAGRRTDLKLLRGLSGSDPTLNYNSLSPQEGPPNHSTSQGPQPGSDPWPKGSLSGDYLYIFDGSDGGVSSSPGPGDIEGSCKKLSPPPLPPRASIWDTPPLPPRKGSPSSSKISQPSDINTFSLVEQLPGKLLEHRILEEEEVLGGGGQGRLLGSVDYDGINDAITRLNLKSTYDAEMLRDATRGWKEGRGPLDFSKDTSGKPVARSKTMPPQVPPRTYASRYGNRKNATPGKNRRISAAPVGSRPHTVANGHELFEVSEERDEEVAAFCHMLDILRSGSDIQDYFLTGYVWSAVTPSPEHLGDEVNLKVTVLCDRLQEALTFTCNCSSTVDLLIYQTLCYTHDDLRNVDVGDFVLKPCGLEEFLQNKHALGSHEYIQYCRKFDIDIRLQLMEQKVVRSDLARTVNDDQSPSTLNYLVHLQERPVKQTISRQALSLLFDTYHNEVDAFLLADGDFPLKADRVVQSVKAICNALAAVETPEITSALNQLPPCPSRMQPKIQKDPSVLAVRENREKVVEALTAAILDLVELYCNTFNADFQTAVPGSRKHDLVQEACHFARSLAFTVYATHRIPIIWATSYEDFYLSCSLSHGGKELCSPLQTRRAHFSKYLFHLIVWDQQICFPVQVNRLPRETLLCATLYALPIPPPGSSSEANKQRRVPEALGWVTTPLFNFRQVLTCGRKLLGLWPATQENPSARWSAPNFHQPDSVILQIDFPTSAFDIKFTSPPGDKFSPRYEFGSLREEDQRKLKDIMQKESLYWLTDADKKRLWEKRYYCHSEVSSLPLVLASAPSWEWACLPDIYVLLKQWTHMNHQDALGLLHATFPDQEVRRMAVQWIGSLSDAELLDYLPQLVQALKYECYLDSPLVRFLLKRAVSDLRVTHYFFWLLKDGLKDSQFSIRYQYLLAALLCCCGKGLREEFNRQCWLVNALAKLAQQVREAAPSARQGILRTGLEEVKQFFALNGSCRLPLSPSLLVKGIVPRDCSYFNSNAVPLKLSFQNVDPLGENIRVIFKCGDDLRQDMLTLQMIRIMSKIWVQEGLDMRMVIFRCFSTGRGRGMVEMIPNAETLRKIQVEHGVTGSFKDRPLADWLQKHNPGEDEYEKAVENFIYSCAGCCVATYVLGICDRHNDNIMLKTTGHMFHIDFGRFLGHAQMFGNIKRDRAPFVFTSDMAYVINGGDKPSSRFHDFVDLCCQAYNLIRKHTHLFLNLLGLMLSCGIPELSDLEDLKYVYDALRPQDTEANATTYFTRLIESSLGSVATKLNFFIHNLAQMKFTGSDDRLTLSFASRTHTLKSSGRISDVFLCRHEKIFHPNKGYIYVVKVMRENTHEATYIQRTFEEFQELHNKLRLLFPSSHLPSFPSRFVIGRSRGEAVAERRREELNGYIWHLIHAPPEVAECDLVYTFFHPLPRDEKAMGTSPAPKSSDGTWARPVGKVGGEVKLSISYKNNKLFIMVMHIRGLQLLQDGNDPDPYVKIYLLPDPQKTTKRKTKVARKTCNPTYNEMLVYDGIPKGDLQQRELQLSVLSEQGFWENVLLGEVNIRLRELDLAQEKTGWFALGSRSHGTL

[12] = target: T12, ABL1(F317I)-phosphorylated (Homo sapiens, UniProt P00519, F317I); type: binding; settings: read-out: Percent Control
T12 construct: purchased Eurofins DiscoverX KINOMEscan (scanMAX 468)

[13] = target: T13, DCAMKL1 (Homo sapiens, UniProt O15075); type: binding; settings: read-out: Percent Control
T13 construct: purchased Eurofins DiscoverX KINOMEscan (scanMAX 468)

[14] = target: T14, ERK8 (Homo sapiens, UniProt Q8TD08); type: binding; settings: read-out: Percent Control
T14 construct: purchased Eurofins DiscoverX KINOMEscan (scanMAX 468)
T14 sequence (Q8TD08 whole entry): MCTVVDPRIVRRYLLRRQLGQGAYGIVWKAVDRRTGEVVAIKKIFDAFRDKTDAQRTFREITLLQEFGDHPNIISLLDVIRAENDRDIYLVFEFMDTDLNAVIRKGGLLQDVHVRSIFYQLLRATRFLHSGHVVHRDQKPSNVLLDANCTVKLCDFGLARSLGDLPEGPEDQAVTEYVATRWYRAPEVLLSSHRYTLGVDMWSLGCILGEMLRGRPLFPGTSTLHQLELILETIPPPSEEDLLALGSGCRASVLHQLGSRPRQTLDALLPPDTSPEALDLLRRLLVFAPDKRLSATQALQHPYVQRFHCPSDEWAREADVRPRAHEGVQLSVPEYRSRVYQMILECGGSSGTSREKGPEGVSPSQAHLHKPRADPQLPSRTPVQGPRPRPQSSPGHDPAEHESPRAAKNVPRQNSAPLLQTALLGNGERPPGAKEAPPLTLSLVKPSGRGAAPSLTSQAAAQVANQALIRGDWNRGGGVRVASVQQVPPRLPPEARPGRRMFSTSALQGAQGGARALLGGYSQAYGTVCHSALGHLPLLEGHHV

[15] = target: T15, FLT3(N841I) (Homo sapiens, UniProt P36888, N841I); type: binding; settings: read-out: Percent Control
T15 construct: purchased Eurofins DiscoverX KINOMEscan (scanMAX 468)

[16] = target: T16, CDKL2 (Homo sapiens, UniProt Q92772); type: binding; settings: read-out: Percent Control
T16 construct: purchased Eurofins DiscoverX KINOMEscan (scanMAX 468)

[17] = target: T17, TNK1 (Homo sapiens, UniProt Q13470); type: binding; settings: read-out: Percent Control
T17 construct: purchased Eurofins DiscoverX KINOMEscan (scanMAX 468)
T17 sequence (Q13470 whole entry): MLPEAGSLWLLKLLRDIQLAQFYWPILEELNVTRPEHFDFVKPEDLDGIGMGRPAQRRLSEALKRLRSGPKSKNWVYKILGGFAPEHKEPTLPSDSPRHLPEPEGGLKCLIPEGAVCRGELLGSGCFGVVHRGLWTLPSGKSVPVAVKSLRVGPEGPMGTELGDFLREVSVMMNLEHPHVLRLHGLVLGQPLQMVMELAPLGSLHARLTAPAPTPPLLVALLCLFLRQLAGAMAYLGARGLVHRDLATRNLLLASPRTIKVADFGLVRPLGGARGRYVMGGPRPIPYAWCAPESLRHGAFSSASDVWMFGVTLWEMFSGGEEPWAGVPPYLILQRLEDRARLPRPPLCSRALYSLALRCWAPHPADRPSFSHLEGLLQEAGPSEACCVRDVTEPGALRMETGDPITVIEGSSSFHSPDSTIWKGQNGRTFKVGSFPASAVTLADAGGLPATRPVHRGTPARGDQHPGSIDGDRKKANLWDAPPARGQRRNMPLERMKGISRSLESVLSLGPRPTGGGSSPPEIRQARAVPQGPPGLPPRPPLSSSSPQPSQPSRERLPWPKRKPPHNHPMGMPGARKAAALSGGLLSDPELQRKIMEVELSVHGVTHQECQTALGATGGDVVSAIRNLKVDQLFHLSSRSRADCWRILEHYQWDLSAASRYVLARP

[18] = target: T18, RIPK1 (Homo sapiens, UniProt Q13546); type: binding; settings: read-out: Percent Control
T18 construct: purchased Eurofins DiscoverX KINOMEscan (scanMAX 468)

[19] = target: T19, RSK4(Kin.Dom.1-N-terminal) (Homo sapiens, UniProt Q9UK32); type: binding; settings: read-out: Percent Control
T19 construct: RSK4(Kin.Dom.1-N-terminal); purchased Eurofins DiscoverX KINOMEscan (scanMAX 468)

[20] = target: T20, CDK7 (Homo sapiens, UniProt P50613); type: binding; settings: read-out: Percent Control
T20 construct: purchased Eurofins DiscoverX KINOMEscan (scanMAX 468)

[21] = target: T21, RIOK2 (Homo sapiens, UniProt Q9BVS4); type: binding; settings: read-out: Percent Control
T21 construct: purchased Eurofins DiscoverX KINOMEscan (scanMAX 468)

[22] = target: T22, MAP4K4 (Homo sapiens, UniProt O95819); type: binding; settings: read-out: Percent Control
T22 construct: purchased Eurofins DiscoverX KINOMEscan (scanMAX 468)

[23] = target: T23, CDC2L2 (Homo sapiens, UniProt Q9UQ88); type: binding; settings: read-out: Percent Control
T23 construct: purchased Eurofins DiscoverX KINOMEscan (scanMAX 468)

[24] = target: T24, ASK2 (Homo sapiens, UniProt O95382); type: binding; settings: read-out: Percent Control
T24 construct: purchased Eurofins DiscoverX KINOMEscan (scanMAX 468)

[25] = target: T25, TNK2 (Homo sapiens, UniProt Q07912); type: binding; settings: read-out: Percent Control
T25 construct: purchased Eurofins DiscoverX KINOMEscan (scanMAX 468)

[26] = target: T26, FLT3(D835Y) (Homo sapiens, UniProt P36888, D835Y); type: binding; settings: read-out: Percent Control
T26 construct: purchased Eurofins DiscoverX KINOMEscan (scanMAX 468)

[27] = target: T27, SGK2 (Homo sapiens, UniProt Q9HBY8); type: binding; settings: read-out: Percent Control
T27 construct: purchased Eurofins DiscoverX KINOMEscan (scanMAX 468)

[28] = target: T28, KIT (Homo sapiens, UniProt P10721); type: binding; settings: read-out: Percent Control
T28 construct: purchased Eurofins DiscoverX KINOMEscan (scanMAX 468)

[29] = target: T29, IKK-alpha (Homo sapiens, UniProt O15111); type: binding; settings: read-out: Percent Control
T29 construct: purchased Eurofins DiscoverX KINOMEscan (scanMAX 468)

[30] = target: T30, HIPK1 (Homo sapiens, UniProt Q86Z02); type: binding; settings: read-out: Percent Control
T30 construct: purchased Eurofins DiscoverX KINOMEscan (scanMAX 468)

[31] = target: T31, FLT3(D835V) (Homo sapiens, UniProt P36888, D835V); type: binding; settings: read-out: Percent Control
T31 construct: purchased Eurofins DiscoverX KINOMEscan (scanMAX 468)

[32] = target: T32, MAPKAPK5 (Homo sapiens, UniProt Q8IW41); type: binding; settings: read-out: Percent Control
T32 construct: purchased Eurofins DiscoverX KINOMEscan (scanMAX 468)

[33] = target: T33, NEK4 (Homo sapiens, UniProt P51957); type: binding; settings: read-out: Percent Control
T33 construct: purchased Eurofins DiscoverX KINOMEscan (scanMAX 468)

[34] = target: T34, KIT(V559D) (Homo sapiens, UniProt P10721, V559D); type: binding; settings: read-out: Percent Control
T34 construct: purchased Eurofins DiscoverX KINOMEscan (scanMAX 468)

[35] = target: T35, ASK1 (Homo sapiens, UniProt Q99683); type: binding; settings: read-out: Percent Control
T35 construct: purchased Eurofins DiscoverX KINOMEscan (scanMAX 468)
T35 sequence (Q99683 whole entry): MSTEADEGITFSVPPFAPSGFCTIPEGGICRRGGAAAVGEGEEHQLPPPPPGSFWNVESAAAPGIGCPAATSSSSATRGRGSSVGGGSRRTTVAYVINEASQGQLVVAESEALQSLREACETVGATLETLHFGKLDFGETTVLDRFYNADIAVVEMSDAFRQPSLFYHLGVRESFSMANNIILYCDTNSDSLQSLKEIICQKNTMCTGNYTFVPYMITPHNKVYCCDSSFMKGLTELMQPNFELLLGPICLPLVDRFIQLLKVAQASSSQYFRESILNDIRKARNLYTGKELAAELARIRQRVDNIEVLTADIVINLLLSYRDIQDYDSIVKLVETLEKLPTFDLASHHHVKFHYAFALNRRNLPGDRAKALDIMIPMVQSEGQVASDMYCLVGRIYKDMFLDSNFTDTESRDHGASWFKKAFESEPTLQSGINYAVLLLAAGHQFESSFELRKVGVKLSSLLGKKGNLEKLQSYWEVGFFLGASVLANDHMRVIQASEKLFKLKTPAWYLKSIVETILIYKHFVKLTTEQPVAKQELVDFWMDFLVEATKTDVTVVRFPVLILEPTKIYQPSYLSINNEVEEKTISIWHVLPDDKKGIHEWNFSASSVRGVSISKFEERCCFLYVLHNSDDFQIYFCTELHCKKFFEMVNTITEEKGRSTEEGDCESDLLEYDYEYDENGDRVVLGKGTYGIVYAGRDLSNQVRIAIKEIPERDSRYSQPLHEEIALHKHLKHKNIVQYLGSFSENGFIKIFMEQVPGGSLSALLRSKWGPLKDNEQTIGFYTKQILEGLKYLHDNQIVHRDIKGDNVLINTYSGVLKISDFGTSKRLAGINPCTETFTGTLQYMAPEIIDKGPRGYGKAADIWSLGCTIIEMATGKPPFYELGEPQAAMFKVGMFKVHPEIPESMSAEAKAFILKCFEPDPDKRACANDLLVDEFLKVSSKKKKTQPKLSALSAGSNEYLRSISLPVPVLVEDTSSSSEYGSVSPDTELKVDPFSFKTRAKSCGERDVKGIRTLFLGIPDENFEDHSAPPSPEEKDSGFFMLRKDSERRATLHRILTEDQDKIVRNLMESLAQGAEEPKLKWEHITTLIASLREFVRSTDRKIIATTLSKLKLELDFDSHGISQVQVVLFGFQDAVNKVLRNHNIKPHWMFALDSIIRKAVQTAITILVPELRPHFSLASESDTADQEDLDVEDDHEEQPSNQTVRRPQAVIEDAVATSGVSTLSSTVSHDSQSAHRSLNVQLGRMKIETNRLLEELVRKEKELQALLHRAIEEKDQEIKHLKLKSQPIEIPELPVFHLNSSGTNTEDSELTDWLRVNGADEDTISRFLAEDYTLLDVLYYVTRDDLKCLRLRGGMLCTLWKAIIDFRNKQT

[36] = target: T36, HCK (Homo sapiens, UniProt P08631); type: binding; settings: read-out: Percent Control
T36 construct: purchased Eurofins DiscoverX KINOMEscan (scanMAX 468)

[37] = target: T37, PAK2 (Homo sapiens, UniProt Q13177); type: binding; settings: read-out: Percent Control
T37 construct: purchased Eurofins DiscoverX KINOMEscan (scanMAX 468)

[38] = target: T38, EGFR(G719S) (Homo sapiens, UniProt P00533, G719S); type: binding; settings: read-out: Percent Control
T38 construct: purchased Eurofins DiscoverX KINOMEscan (scanMAX 468)

[39] = target: T39, JNK2 (Homo sapiens, UniProt P45984); type: binding; settings: read-out: Percent Control
T39 construct: purchased Eurofins DiscoverX KINOMEscan (scanMAX 468)

[40] = target: T40, ERBB3 (Homo sapiens, UniProt P21860); type: binding; settings: read-out: Percent Control
T40 construct: purchased Eurofins DiscoverX KINOMEscan (scanMAX 468)

[41] = system: FLT3(ITD,F691L); type: binding, human; settings: 1 μM
[42] = target: T41, PAK6 (Homo sapiens, UniProt Q9NQU5); type: binding; settings: read-out: Percent Control
T41 construct: purchased Eurofins DiscoverX KINOMEscan (scanMAX 468)

Cc1ccc(-n2cc(COc3cccc4cnc(Nc5cccc(Cl)c5)nc34)nn2)c([N+](=O)[O-])c1 [DB18]
remaining binding at 1 µM [1]: 55%
remaining binding at 1 µM [2]: 100%
remaining binding at 1 µM [3]: 93%
remaining binding at 1 µM [4]: 100%
remaining binding at 1 µM [5]: 100%
remaining binding at 1 µM [6]: 100%
remaining binding at 1 µM [7]: 93%
remaining binding at 1 µM [8]: 100%
remaining binding at 1 µM [9]: 96%
remaining binding at 1 µM [10]: 96%
remaining binding at 1 µM [11]: 100%
remaining binding at 1 µM [12]: 100%
remaining binding at 1 µM [13]: 88%
remaining binding at 1 µM [14]: 95%
remaining binding at 1 µM [15]: 77%
remaining binding at 1 µM [16]: 97%
remaining binding at 1 µM [17]: 100%
remaining binding at 1 µM [18]: 100%
remaining binding at 1 µM [19]: 96%
remaining binding at 1 µM [20]: 100%
remaining binding at 1 µM [21]: 100%
remaining binding at 1 µM [22]: 100%
remaining binding at 1 µM [23]: 100%
remaining binding at 1 µM [24]: 99%
remaining binding at 1 µM [25]: 100%
remaining binding at 1 µM [26]: 29%
remaining binding at 1 µM [27]: 100%
remaining binding at 1 µM [28]: 100%
remaining binding at 1 µM [29]: 100%
remaining binding at 1 µM [30]: 19%
remaining binding at 1 µM [31]: 67%
remaining binding at 1 µM [32]: 99%
remaining binding at 1 µM [33]: 99%
remaining binding at 1 µM [34]: 100%
remaining binding at 1 µM [35]: 100%
remaining binding at 1 µM [36]: 100%
remaining binding at 1 µM [37]: 100%
remaining binding at 1 µM [38]: 100%
remaining binding at 1 µM [39]: 96%
remaining binding at 1 µM [40]: 99%
Percent Control [41]: 94 % Ctrl
remaining binding at 1 µM [42]: 100%
